Assay results from ChEMBL document CHEMBL5465560, “Selectivity Literature for EUbOPEN Chemogenomic Library” (2024).

Columns and labels:
[1] = target: Proto-oncogene tyrosine-protein kinase ROS (Homo sapiens) (UniProt P08922); details: at 10 µM
[2] = target: T1, Serine/threonine-protein kinase DCLK2 (Homo sapiens) (UniProt Q8N568); details: at 10 µM
T1 sequence (whole entry): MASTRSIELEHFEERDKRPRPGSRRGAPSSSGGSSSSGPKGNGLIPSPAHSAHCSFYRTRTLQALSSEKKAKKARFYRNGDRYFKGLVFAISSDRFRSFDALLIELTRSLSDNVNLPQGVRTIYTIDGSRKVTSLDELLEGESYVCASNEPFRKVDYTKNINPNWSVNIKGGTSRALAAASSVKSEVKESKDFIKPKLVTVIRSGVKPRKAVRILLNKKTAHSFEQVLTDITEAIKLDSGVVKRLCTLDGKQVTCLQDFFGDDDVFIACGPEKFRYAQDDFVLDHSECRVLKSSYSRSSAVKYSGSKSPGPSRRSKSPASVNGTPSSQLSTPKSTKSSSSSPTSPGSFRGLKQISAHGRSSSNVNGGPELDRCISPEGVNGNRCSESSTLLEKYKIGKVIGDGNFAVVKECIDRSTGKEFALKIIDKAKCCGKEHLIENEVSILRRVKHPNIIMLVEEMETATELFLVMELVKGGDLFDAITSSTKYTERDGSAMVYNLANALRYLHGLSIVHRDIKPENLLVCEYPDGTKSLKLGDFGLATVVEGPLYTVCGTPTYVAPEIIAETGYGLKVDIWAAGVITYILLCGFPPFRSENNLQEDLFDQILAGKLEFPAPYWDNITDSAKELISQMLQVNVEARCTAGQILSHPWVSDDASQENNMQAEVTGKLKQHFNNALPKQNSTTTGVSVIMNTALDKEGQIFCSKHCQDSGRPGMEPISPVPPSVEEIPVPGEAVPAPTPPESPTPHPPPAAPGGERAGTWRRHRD

[3] = target: Serine/threonine-protein kinase Nek7 (Homo sapiens) (UniProt Q8TDX7); test: Selectivity interaction (KinomeScan (DiscoverX)) EUB0000229b NEK7; details: at 10 µM
[4] = target: Serine/threonine-protein kinase 25 (Homo sapiens) (UniProt O00506); test: Selectivity interaction (KinomeScan (DiscoverX)) EUB0000045b STK25
[5] = target: T2, Ephrin type-A receptor 3 (Homo sapiens) (UniProt P29320); test: Selectivity interaction (KinomeScan (DiscoverX)) EUB0000655a EPHA3; details: at 10 µM
T2 sequence (whole entry): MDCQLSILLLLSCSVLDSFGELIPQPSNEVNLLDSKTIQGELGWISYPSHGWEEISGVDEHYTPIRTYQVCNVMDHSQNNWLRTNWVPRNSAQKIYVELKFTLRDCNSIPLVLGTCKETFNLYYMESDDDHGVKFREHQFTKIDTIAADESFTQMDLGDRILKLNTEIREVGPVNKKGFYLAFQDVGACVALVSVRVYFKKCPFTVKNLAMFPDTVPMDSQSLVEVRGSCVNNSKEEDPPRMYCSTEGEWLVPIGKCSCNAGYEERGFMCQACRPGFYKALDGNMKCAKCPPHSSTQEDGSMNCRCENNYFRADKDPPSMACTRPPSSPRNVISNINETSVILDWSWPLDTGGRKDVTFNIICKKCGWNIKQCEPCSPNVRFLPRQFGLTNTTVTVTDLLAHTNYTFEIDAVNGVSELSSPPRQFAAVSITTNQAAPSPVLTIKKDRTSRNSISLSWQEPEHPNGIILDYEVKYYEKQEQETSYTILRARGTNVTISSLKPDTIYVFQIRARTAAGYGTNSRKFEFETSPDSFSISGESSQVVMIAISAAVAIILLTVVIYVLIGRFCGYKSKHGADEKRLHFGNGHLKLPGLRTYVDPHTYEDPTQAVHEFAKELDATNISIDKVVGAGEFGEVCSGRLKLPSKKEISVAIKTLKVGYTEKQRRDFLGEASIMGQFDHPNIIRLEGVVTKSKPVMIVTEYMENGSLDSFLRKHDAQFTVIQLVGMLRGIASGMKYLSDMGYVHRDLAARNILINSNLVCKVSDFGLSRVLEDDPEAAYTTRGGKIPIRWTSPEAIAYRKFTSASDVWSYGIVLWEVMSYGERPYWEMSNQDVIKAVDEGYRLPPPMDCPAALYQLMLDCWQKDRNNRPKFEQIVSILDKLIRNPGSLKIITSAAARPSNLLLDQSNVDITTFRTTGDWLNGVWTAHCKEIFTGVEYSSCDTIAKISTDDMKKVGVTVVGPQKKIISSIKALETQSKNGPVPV

[6] = target: Cyclin-dependent kinase 13 (Homo sapiens, UniProt Q14004); test: Selectivity interaction (KinomeScan (DiscoverX)) EUB0000607a CDK13; details: at 10 µM
[7] = target: T3, Tyrosine-protein kinase ZAP-70 (Homo sapiens) (UniProt P43403); test: Selectivity interaction (KinomeScan (DiscoverX)) EUB0000607a ZAP70; details: at 10 µM
T3 sequence (whole entry): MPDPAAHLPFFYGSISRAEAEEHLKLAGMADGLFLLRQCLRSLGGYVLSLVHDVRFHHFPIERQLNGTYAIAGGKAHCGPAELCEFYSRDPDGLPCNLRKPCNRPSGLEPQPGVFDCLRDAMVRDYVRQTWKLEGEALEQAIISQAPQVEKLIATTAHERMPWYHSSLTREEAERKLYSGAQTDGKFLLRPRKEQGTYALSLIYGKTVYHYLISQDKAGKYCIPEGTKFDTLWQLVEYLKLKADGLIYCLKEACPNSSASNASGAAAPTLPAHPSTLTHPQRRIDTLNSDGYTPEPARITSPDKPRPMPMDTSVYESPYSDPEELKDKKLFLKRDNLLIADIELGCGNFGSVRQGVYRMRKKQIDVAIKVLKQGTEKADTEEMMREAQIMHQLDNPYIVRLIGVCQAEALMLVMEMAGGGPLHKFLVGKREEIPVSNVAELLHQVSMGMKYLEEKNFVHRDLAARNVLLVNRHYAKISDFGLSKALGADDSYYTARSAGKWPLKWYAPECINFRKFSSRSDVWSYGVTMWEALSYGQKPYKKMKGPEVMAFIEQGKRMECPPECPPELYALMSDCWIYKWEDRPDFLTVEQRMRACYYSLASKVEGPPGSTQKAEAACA

[8] = target: Mitogen-activated protein kinase 14 (Homo sapiens, UniProt Q16539); test: Selectivity interaction (Kinase panel (DSF assay)) EUB0001558a MAPK14
[9] = target: MAP/microtubule affinity-regulating kinase 3 (Homo sapiens) (UniProt P27448); test: Selectivity interaction (Kinase panel (DSF assay)) EUB0001558a MARK3
[10] = target: Fibroblast growth factor receptor 2 (Homo sapiens) (UniProt P21802); test: Selectivity interaction (Kinase panel (DSF assay)) EUB0001558a FGFR2
Chain of Fibroblast growth factor receptor 2 (Homo sapiens) (P21802 22-821 limits assumed): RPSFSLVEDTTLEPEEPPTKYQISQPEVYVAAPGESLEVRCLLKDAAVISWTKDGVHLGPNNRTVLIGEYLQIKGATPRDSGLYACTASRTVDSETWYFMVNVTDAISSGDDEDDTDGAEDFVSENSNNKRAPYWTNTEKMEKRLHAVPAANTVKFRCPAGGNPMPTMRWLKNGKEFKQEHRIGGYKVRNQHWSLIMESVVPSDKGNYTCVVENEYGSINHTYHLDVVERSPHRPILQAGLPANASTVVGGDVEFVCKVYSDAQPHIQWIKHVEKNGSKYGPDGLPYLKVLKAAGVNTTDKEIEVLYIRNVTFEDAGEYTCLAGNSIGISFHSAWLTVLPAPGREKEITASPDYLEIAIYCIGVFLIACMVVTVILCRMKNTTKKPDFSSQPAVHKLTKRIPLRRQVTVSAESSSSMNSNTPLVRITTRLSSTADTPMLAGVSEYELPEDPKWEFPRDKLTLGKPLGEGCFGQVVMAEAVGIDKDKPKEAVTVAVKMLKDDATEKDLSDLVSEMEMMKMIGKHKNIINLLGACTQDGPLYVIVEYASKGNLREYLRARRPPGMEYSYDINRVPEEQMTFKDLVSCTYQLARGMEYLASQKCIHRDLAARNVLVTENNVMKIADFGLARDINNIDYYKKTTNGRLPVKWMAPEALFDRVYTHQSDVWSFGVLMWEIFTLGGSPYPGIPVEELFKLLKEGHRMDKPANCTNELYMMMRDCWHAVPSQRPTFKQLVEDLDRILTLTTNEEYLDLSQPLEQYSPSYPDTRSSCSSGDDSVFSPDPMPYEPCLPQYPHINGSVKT

Chain of Serine/threonine-protein kinase 25 (Homo sapiens) (O00506 whole entry, looked up): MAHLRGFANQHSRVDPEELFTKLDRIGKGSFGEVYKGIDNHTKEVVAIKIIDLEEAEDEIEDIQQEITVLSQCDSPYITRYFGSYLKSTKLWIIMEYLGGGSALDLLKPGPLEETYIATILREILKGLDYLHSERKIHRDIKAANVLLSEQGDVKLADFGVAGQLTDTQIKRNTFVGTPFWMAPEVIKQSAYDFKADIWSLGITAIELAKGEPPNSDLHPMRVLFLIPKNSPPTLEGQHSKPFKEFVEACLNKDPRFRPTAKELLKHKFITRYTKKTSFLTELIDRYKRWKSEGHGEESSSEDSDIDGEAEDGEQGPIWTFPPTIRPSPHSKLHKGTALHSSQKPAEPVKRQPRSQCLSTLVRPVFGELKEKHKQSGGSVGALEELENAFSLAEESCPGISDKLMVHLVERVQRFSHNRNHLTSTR
Chain of Serine/threonine-protein kinase Nek7 (Homo sapiens) (Q8TDX7 whole entry, looked up): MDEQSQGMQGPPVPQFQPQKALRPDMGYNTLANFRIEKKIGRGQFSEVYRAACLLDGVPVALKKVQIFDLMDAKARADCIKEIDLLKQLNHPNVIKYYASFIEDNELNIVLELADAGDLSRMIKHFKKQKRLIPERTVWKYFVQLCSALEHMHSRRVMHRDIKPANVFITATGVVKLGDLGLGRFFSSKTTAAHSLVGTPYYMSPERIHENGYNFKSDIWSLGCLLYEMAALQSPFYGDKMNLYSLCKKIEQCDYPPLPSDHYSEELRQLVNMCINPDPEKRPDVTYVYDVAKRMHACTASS
Chain of Cyclin-dependent kinase 13 (Q14004 whole entry, looked up): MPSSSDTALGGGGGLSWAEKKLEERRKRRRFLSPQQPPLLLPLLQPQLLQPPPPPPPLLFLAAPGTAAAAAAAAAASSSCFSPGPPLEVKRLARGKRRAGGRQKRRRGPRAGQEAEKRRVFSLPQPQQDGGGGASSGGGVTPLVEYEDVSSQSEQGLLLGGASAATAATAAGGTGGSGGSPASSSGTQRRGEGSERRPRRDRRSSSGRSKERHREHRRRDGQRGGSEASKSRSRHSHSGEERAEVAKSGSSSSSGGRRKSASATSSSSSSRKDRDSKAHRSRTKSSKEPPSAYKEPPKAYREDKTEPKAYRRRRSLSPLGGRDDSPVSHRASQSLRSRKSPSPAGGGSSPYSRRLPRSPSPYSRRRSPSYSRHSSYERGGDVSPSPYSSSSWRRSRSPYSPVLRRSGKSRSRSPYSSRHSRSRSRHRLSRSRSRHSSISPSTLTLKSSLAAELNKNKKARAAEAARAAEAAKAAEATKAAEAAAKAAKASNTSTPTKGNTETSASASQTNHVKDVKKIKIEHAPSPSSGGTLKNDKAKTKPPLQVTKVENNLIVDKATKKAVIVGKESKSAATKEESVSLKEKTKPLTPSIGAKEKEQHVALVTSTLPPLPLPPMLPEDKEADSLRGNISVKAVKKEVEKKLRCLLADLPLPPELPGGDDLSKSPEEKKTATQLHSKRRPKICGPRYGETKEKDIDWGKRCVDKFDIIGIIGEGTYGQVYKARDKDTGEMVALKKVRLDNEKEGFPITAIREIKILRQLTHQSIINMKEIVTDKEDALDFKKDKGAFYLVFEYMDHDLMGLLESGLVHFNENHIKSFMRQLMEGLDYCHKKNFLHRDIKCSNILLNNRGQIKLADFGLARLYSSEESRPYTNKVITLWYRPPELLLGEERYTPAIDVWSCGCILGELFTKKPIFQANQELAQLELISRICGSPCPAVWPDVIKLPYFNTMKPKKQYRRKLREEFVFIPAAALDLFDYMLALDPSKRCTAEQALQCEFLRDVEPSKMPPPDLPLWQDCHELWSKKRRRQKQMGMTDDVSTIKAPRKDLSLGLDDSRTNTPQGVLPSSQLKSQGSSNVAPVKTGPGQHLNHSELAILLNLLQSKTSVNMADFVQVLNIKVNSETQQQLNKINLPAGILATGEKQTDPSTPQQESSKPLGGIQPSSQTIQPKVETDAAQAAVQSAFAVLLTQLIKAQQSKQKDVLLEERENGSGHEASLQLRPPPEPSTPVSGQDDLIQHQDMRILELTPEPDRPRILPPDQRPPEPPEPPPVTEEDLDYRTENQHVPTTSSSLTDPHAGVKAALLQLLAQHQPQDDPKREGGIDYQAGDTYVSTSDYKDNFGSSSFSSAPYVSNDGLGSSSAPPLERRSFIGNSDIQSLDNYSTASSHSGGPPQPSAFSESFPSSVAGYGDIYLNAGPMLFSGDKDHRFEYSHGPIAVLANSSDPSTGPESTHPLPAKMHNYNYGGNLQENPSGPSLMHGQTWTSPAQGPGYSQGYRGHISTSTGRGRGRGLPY
Chain of Mitogen-activated protein kinase 14 (Q16539 whole entry): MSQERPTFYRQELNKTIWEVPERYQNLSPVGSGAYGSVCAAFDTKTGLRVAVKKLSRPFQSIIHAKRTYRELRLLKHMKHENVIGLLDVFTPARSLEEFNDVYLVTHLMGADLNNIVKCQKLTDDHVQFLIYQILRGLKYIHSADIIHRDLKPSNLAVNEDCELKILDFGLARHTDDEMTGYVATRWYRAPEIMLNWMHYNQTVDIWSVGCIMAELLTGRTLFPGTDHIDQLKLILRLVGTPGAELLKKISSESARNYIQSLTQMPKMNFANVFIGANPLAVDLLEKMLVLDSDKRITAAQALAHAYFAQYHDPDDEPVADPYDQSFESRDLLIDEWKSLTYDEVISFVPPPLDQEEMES
Chain of MAP/microtubule affinity-regulating kinase 3 (Homo sapiens) (P27448 whole entry, looked up): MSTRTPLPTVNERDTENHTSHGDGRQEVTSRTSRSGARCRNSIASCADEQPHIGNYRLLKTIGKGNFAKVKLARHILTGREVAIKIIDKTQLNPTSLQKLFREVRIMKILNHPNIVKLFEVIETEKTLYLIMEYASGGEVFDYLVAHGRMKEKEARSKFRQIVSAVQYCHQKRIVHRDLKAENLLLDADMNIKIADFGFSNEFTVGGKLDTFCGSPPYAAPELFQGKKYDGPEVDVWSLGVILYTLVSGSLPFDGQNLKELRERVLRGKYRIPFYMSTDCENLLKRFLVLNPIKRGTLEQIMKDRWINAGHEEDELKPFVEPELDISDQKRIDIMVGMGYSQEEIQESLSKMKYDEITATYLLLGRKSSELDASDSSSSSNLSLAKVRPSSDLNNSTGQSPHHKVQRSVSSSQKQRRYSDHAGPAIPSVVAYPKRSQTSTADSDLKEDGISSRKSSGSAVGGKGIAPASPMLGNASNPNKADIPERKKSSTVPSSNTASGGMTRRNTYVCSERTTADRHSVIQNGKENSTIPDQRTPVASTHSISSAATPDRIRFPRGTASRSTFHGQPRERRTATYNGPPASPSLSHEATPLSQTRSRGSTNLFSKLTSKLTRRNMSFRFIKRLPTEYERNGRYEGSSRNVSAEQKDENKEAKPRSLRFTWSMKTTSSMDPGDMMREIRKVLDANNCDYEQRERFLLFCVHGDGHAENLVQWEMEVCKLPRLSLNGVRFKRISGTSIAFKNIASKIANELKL

## Cc1cc([C@@H](C)Nc2ccccc2C(=O)O)c2nc(N3CCOCC3)cc(=O)n2c1 [AZD-6482]
[1]
  % of control: 100%

## CCN(CC)CCCCNc1ncc2cc(-c3cc(OC)cc(OC)c3)c(NC(=O)NC(C)(C)C)nc2n1
[2]
  % of control: 100%

## COc1cc(N(C)c2ccnc3ccc(C(F)(F)F)cc23)cc(OC)c1OC
[3]
  % binding: 100%

## C=CC(=O)Nc1cc(-n2c(=O)ccc3cnc4ccc(-c5ccc(NS(C)(=O)=O)cc5)cc4c32)ccc1C
[4]; at 1 µM
  % of control: 100%
[4]; at 10 µM
  % of control: 65%

## CN(C)CCOc1ccc(-c2nc(-c3ccncc3)c(-c3ccc4c(c3)CC/C4=N\O)[nH]2)cc1
[5]
  % of control: 99%

## CNC(=O)Nc1ccc(-c2nc(N3CC4CCC(C3)O4)c3cnn(C4CCC5(CC4)OCCO5)c3n2)cc1
[6]
  % of control: 84%
[7]
  % of control: 83%

## CC(C)(O)[C@H](F)CN1Cc2cc(NC(=O)c3cnn4cccnc34)c(N3CCOCC3)cc2C1=O
[8]
  dTM: 0.3 K
[9]
  dTM: 1.9 K
[10]
  dTM: 1 K
